Results published in patent publication US12336991B2, “Factor XIIA inhibitors” (UNIVERSITY OF LEEDS, priority 2018, dated 2025).

Columns and labels:
Assay type in all cases: biochemical
FXa = FXa (Homo sapiens, UniProt P00742); assay: Determination of selectivity: FXa inhibition, chromogenic substrate S2765 assay; conditions: fold selectivity for FXIIa over FXa
Procedure, shortened: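 Human FXa (5 nM) preincubated with compound (top 500 μM, 5% DMSO) 10 min at 37 °C in 50 mM Tris, 137 mM NaCl pH 7.4, then S2765 ([…]) added; A405 kinetics over 3 h at 37 °C. IC50 from initial rates, converted to Ki via Cheng-Prusoff.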

FXIIa = biological target: T1, FXIIa (Homo sapiens, UniProt P00748); assay: Determination of Factor XIIa inhibition, chromogenic substrate S-2302 assay; conditions: human FXIIa alpha
T1 sequence (P00748 373-615 limits assumed): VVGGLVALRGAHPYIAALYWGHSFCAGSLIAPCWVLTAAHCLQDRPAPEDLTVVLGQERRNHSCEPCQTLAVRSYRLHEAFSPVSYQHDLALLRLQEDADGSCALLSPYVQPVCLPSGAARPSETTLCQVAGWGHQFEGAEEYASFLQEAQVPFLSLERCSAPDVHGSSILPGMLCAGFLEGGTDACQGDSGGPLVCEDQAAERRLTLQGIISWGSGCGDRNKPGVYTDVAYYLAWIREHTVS
T1 sequence (P00748 20-372 partner limits assumed): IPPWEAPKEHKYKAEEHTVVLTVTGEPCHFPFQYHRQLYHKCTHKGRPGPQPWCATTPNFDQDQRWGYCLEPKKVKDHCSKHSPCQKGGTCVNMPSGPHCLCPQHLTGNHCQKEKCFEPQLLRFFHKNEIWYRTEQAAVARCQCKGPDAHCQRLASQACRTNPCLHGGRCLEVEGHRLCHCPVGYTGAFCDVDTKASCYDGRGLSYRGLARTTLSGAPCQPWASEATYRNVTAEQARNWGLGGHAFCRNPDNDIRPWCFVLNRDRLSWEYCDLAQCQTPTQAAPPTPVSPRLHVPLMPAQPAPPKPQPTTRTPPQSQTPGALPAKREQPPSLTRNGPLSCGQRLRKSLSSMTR
Procedure, shortened: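 FXIIa (10 nM) preincubated with compound 10 min at 37° C. in 50 mM Tris, 137 mM NaCl pH 7.4, 5% DMSO, top concentration 500 μM, then S-2302 added ([…]). Absorbance at 405 nm read kinetically for 3 h; IC50 from initial rates, converted to Ki by Cheng-Prusoff.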

thrombin = biological target: T2, thrombin (Homo sapiens, UniProt P00734); assay: Determination of selectivity: thrombin inhibition, chromogenic substrate GPR assay; conditions: fold selectivity for FXIIa over thrombin
T2 construct: FXa (5 nM) and thrombin (5 nM)
Procedure, shortened: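 Thrombin (5 nM) preincubated with compound 10 min at 37 °C in 50 mM Tris, 137 mM NaCl, pH 7.4, 5% DMSO, then GPR substrate ([…]) added. Absorbance at 405 nm read kinetically for 3 h; IC50 from initial rates, converted to Ki via Ki=IC50/(1+[S]/Km).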

Sequence of FXa (P00742 235-488 limits assumed): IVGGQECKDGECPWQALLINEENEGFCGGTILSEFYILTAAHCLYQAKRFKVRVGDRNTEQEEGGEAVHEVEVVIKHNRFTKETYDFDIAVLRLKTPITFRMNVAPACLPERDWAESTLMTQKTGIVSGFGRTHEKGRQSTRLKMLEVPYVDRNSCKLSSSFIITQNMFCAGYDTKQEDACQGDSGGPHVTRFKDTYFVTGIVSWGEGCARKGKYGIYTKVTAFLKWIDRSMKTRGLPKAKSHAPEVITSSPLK
Sequence of FXa (P00742 41-179 partner limits assumed): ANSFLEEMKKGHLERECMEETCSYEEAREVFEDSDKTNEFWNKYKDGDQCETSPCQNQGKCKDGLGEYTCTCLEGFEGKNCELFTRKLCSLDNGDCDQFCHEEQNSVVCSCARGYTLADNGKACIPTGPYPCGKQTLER

| SMILES | FXa (human)/FXIIa alpha (human) (FXa) | Ki (FXIIa) | Thrombin (human)/FXIIa alpha (human) (thrombin) |
| --- | --- | --- | --- |
| COc1ccc(C[C@@H]2C[C@@H](C(=O)NCc3ccc4c(c3)nnn4C)N(C(=O)[C@H]3C[C@@H](c4ncccn4)CN3)C2)cc1 [Example M05387] | ∘∘∘ | 0.2 to 2 µM | +++ (fold selectivity values greater than 100) |
| COc1ccc(C[C@@H]2C[C@@H](C(=O)NCc3ccc4c(c3)nnn4C)N(C(=O)[C@H]3C[C@@H](c4ccccc4OC(F)(F)F)CN3)C2)cc1 [Example M05388] | ∘∘∘ | 0.2 to 2 µM | +++ (fold selectivity values greater than 100) |
| COc1ccc(C[C@@H]2C[C@@H](C(=O)NCc3ccc4c(c3)nnn4C)N(C(=O)[C@H]3C[C@@H](c4ccccc4)CN3C)C2)cc1 [Example M05389, (2S,4R)-4-(4-Methoxy-benzyl)-1-((2R,4S)-1-methyl-4-phenyl-pyrrolidine-2-carbonyl)-pyrrolidine-2-carboxylic acid (1-methyl-1H-benzotriazol-5-ylmethyl)-amide] | ∘∘∘ | 0.2 to 2 µM | +++ (fold selectivity values greater than 100) |
| Cn1nnc2cc(CNC(=O)[C@@H]3C[C@@H](Cc4ccc5c(c4)OCO5)CN3C(=O)[C@H]3C[C@@H](c4ccccc4)CN3)ccc21 [Example M05390] | ∘∘∘ | 0.2 to 2 µM | ++ (fold selectivity value of 10 to 100) |
| COc1ccc(C[C@@H]2C[C@@H](C(=O)NCc3ccc4c(c3)nnn4C)N(C(=O)[C@H](N)CCC(=O)N3CCCC3C)C2)cc1 (stereo partly drawn) [Example M05391] | ∘∘∘ | < 0.2 µM | +++ (fold selectivity values greater than 100) |
| COc1ccc(C[C@@H]2C[C@@H](C(=O)NCc3ccc4c(c3)nnn4C)N(C(=O)[C@H](N)CCC(=O)N3CCCC3C(F)(F)F)C2)cc1 (stereo partly drawn) [Example M05392] | ∘∘∘ | < 0.2 µM | +++ (fold selectivity values greater than 100) |
| COc1ccc(C[C@@H]2C[C@@H](C(=O)NCc3ccc4c(c3)nnn4C)N(C(=O)[C@H](N)CCC(=O)N3CCNCC3)C2)cc1 [Example M05393] | ∘∘∘ | 0.2 to 2 µM | +++ (fold selectivity values greater than 100) |
| COc1ccc(C[C@@H]2C[C@@H](C(=O)NCc3ccc4c(c3)nnn4C)N(C(=O)[C@H](N)CCC(=O)N3[C@H]4CC[C@@H]3CC4)C2)cc1 [Example M05394] | ∘∘∘ | 0.2 to 2 µM | +++ (fold selectivity values greater than 100) |
| COc1ccc(C[C@@H]2C[C@@H](C(=O)NCc3ccc4c(c3)nnn4C)N(C(=O)[C@H]3CC(c4ccccc4C(F)(F)F)CN3)C2)cc1 (stereo partly drawn) [Example M05397] | ∘∘∘ | 0.2 to 2 µM | +++ (fold selectivity values greater than 100) |
| COc1ccc(C[C@@H]2C[C@@H](C(=O)NCc3ccc4c(c3)nnn4C)N(C(=O)[C@H](N)CCC(=O)N3C(C)CCC3C)C2)cc1 (stereo partly drawn) [Example M05399] | ∘∘∘ | < 0.2 µM | +++ (fold selectivity values greater than 100) |
| COc1ccc(C[C@@H]2C[C@@H](C(=O)NCc3ccc4c(c3)nnn4C)N(C(=O)[C@H](N)CCC(=O)N3CC[C@H](F)C3)C2)cc1 [Example M05400] | ∘∘∘ | < 0.2 µM | +++ (fold selectivity values greater than 100) |
| COc1ccc(C[C@@H]2C[C@@H](C(=O)NCc3cc4cccnc4[nH]3)N(C(=O)[C@H](N)CCC(=O)N3CCCC3)C2)cc1 [Example M05401] | ∘∘ | > 2 µM | ++ (fold selectivity value of 10 to 100) |
| COc1ccc(C[C@@H]2C[C@@H](C(=O)NCc3ccc4c(c3)nnn4C)N(C(=O)[C@H](N)CCC(=O)N3CCC[C@H]3C#N)C2)cc1 [Example M05402] | ∘∘∘ | < 0.2 µM | +++ (fold selectivity values greater than 100) |
| COc1ccc(C[C@@H]2C[C@@H](C(=O)NCc3cc4cnccc4o3)N(C(=O)[C@H](N)CCC(=O)N3CCCC3)C2)cc1 [Example M05404] | ∘∘∘ | < 0.2 µM | +++ (fold selectivity values greater than 100) |
| COc1ccc(C[C@@H]2C[C@@H](C(=O)NCc3ccc4c(c3)nnn4C)N(C(=O)[C@H]3CC(c4cccnc4C)CN3)C2)cc1 (stereo partly drawn) [Example M05406] | ∘∘∘ | 0.2 to 2 µM | +++ (fold selectivity values greater than 100) |
| COc1ccc(C[C@@H]2C[C@@H](C(=O)NCc3ccc4c(c3)nnn4C)N(C(=O)[C@H](N)CCC(=O)N3CCC[C@H]3C(C)C)C2)cc1 [Example M05407] | ∘∘∘ | < 0.2 µM | +++ (fold selectivity values greater than 100) |
| COc1ccc(C[C@@H]2C[C@@H](C(=O)NCc3ccc4c(c3)nnn4C)N(C(=O)[C@H]3CC(c4c(C)noc4C)CN3)C2)cc1 (stereo partly drawn) [Example M05409] | ∘∘ | > 2 µM | + (fold selectivity values less than 10) |
| COc1ccc(C[C@@H]2C[C@@H](C(=O)NCc3ccc4c(c3)nnn4C)N(C(=O)[C@H]3CC(c4cnccc4OC)CN3)C2)cc1 (stereo partly drawn) [Example M05410] | ∘∘ | > 2 µM | + (fold selectivity values less than 10) |
| COc1ccc(C[C@@H]2C[C@@H](C(=O)NCc3ccc4c(c3)nnn4C)N(C(=O)[C@H](N)CCC(=O)N3C4CCC3COC4)C2)cc1 [Example M05411] | ∘∘∘ | 0.2 to 2 µM | +++ (fold selectivity values greater than 100) |
| COc1ccc(C[C@@H]2C[C@@H](C(=O)NCc3ccc4c(c3)nnn4C)N(C(=O)[C@H](N)CCC(=O)N3CCC[C@@H]3C(C)C)C2)cc1 [Example M05412] | ∘∘∘ | < 0.2 µM | +++ (fold selectivity values greater than 100) |
| COc1ccc(C[C@@H]2C[C@@H](C(=O)NCc3ccc4c(c3)nnn4C)N(C(=O)[C@H](N)CC3CCCc4ccccc43)C2)cc1 (stereo partly drawn) [Example M05413] | ∘∘∘ | 0.2 to 2 µM | ++ (fold selectivity value of 10 to 100) |
| COc1ccc(C[C@@H]2C[C@@H](C(=O)NCc3ccc4c(c3)nnn4C)N(C(=O)[C@H](N)CCC(=O)N3CCNC[C@@H]3C)C2)cc1 [Example M05417, (2S,4R)-1-[(R)-2-amino-5-((S)-2-methyl-piperazin-1-yl)-5-oxo-pentanoyl]-4-(4-methoxy-benzyl)-pyrrolidine-2-carboxylic acid (1-methyl-1H-benzotriazol-5-ylmethyl)-amide] | ∘∘∘ | 0.2 to 2 µM | +++ (fold selectivity values greater than 100) |
| COc1ccc(C[C@@H]2C[C@@H](C(=O)NCc3ccc4c(c3)nnn4C)N(C(=O)[C@H]3CC(c4cccnc4F)CN3)C2)cc1 (stereo partly drawn) [Example M05418] | ∘∘∘ | 0.2 to 2 µM | +++ (fold selectivity values greater than 100) |
| COc1ccc(C[C@@H]2C[C@@H](C(=O)NCc3ccc4c(c3)nnn4C)N(C(=O)[C@H]3CC(c4ccc[nH]c4=O)CN3)C2)cc1 (stereo partly drawn) [Example M05419] | ∘∘∘ | < 0.2 µM | +++ (fold selectivity values greater than 100) |
| COc1ccc(C[C@@H]2C[C@@H](C(=O)NCc3ccc4c(c3)nnn4C)N(C(=O)[C@H](N)CCC(=O)N3C4CCC3CNC4)C2)cc1 [Example M05420] | ∘∘∘ | < 0.2 µM | +++ (fold selectivity values greater than 100) |
| COc1ccc(C[C@@H]2C[C@@H](C(=O)NCc3ccc4c(c3)nnn4C)N(C(=O)[C@H]3CC(c4cccnc4C(F)(F)F)CN3)C2)cc1 (stereo partly drawn) [Example M05421] | ∘∘∘ | 0.2 to 2 µM | +++ (fold selectivity values greater than 100) |
